{
  "source": "patent US9763445B2",
  "about": "“Safened herbicidal compositions comprising a pyridine carboxylic acid herbicide” (Dow AgroSciences, LLC, priority 2014, dated 2017)",
  "key": {"[1]": {"tested_on": "common poppy (PAPRH)", "experiment": "Postemergence greenhouse trial, % visual injury on common poppy", "format": "in vivo, Papaver rhoeas", "details": "PAPRH, CQC-m 0 g/ha", "summary_of_the_method": "(§1)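 Herbicide rates g ae/ha, safener (cloquintocet-mexyl) rates g ai/ha; spray carrier 1.5% v/v crop oil concentrate, 187 L/ha, 2nd–3rd leaf stage. Rating: visual % injury at 20-22 d.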"}, "[2]": {"tested_on": "pigweed (AMARE)", "experiment": "Postemergence greenhouse trial, % visual injury on pigweed", "format": "in vivo, Amaranthus retroflexus", "details": "AMARE, CQC-m 0 g/ha", "summary_of_the_method": "(§2)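 Injury was scored visually (0 = none, 100 = complete kill) 20–22 d after track-sprayer application at 187 L/ha, compared with solvent-sprayed controls. Test plants at the 2–3 true leaf stage; herbicide (g ae/ha) plus cloquintocet-mexyl safener (g ai/ha) in crop-oil-containing spray; expected mixture response by Colby.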"}, "[3]": {"tested_on": "spring wheat (TRZAS)", "experiment": "Postemergence greenhouse trial, % visual injury on spring wheat", "format": "in vivo, Triticum aestivum", "details": "TRZAS, CQC-m 0 g/ha", "summary_of_the_method": "as §2"}, "[4]": {"tested_on": "winter rape (BRSNW)", "experiment": "Postemergence greenhouse trial, % visual injury on winter rape", "format": "in vivo, Brassica napus", "details": "BRSNW, CQC-m 0 g/ha", "summary_of_the_method": "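Visual injury, 0 (none) to 100 (complete kill), rated 20-22 d after overhead track-sprayer application at 187 L/ha; Colby's equation gave expected mixture responses. Herbicide (g ae/ha) and cloquintocet-mexyl safener (g ai/ha) diluted in aqueous 1.5% v/v Agri-dex, applied to weeds at 2–3 true leaves.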"}, "[5]": {"tested_on": "bird's-eye speedwell (VERPE)", "experiment": "Postemergence greenhouse trial, % visual injury on bird's-eye speedwell", "format": "in vivo, Veronica persica", "details": "VERPE, CQC-m 0 g/ha", "summary_of_the_method": "as §1"}},
  "data": [
    {"compound": "Nc1cc(-c2ccc3cc[nH]c3c2F)nc(C(=O)O)c1Cl", "note": "[compound 15]", "values": [
      {"measurement": "% visual injury, Ob", "setting": "[1]; compound 4.375 g/ha", "result": 90, "unit": "%"},
      {"measurement": "% visual injury, Ob", "setting": "[1]; compound 8.75 g/ha", "result": 100, "unit": "%"},
      {"measurement": "% visual injury, Ob", "setting": "[1]; compound 17.5 g/ha", "result": 100, "unit": "%"},
      {"measurement": "% visual injury, Ob", "setting": "[1]; compound 35 g/ha", "result": 100, "unit": "%"},
      {"measurement": "% visual injury, Ob", "setting": "[2]; compound 4.375 g/ha", "result": 70, "unit": "%"},
      {"measurement": "% visual injury, Ob", "setting": "[2]; compound 8.75 g/ha", "result": 100, "unit": "%"},
      {"measurement": "% visual injury, Ob", "setting": "[2]; compound 17.5 g/ha", "result": 100, "unit": "%"},
      {"measurement": "% visual injury, Ob", "setting": "[2]; compound 35 g/ha", "result": 100, "unit": "%"},
      {"measurement": "% visual injury, Ob", "setting": "[3]; compound 4.375 g/ha", "result": 0, "unit": "%"},
      {"measurement": "% visual injury, Ob", "setting": "[3]; compound 8.75 g/ha", "result": 10, "unit": "%"},
      {"measurement": "% visual injury, Ob", "setting": "[3]; compound 17.5 g/ha", "result": 15, "unit": "%"},
      {"measurement": "% visual injury, Ob", "setting": "[3]; compound 35 g/ha", "result": 20, "unit": "%"},
      {"measurement": "% visual injury, Ob", "setting": "[3]; compound 70 g/ha", "result": 25, "unit": "%"},
      {"measurement": "% visual injury, Ob", "setting": "[4]; compound 4.375 g/ha", "result": 40, "unit": "%"},
      {"measurement": "% visual injury, Ob", "setting": "[4]; compound 8.75 g/ha", "result": 40, "unit": "%"},
      {"measurement": "% visual injury, Ob", "setting": "[4]; compound 17.5 g/ha", "result": 50, "unit": "%"},
      {"measurement": "% visual injury, Ob", "setting": "[4]; compound 35 g/ha", "result": 70, "unit": "%"},
      {"measurement": "% visual injury, Ob", "setting": "[4]; compound 70 g/ha", "result": 60, "unit": "%"},
      {"measurement": "% visual injury, Ob", "setting": "[5]; compound 4.375 g/ha", "result": 85, "unit": "%"},
      {"measurement": "% visual injury, Ob", "setting": "[5]; compound 8.75 g/ha", "result": 85, "unit": "%"},
      {"measurement": "% visual injury, Ob", "setting": "[5]; compound 17.5 g/ha", "result": 90, "unit": "%"},
      {"measurement": "% visual injury, Ob", "setting": "[5]; compound 35 g/ha", "result": 93, "unit": "%"},
      {"measurement": "% visual injury, Ob", "setting": "[5]; compound 70 g/ha", "result": 95, "unit": "%"}
    ]}
  ]
}
